Source: patent US20220087987A1, “A METHOD FOR TREATING SWI/SNF COMPLEX-DEFICIENT CANCERS COMPRISING GLUTATHIONE (GSH) METABOLIC PATHWAY INHIBITOR” (National Cancer Center, priority 2018, published 2022)

What was measured:
Type in all cases: cell-based, human
[1] = test system: NOXA; assay: Quantitation of NOXA mRNA (quantitative RT-PCR); conditions: ARID1A-KO cells and ARID1A-deficient cancer cells, 24 hrs
Protocol: mRNA was extracted and cDNA was synthesized using the SuperPrep (Registered Trademark) Cell Lysis & RT Kit for qPCR (TOYOBO). Aliquots of cDNA were subjected to quantitative PCR using the SuperPrep/THUNDERBIRD Probe qPCR Set (TOYOBO) and TaqMan Gene Expression Assays (Life Technologies). The following gene-specific primer/probe sets were used: NOXA (PMAIP1) (Hs00560402 ml), NRF2 (NFE2L2) (Hs00975961 g_1), GCLC (Hs00155249 ml), GSS (Hs00609286_m1), and SLC7A11 (Hs00921938_m1). PCR was performed in an ABI StepOnePlus Real-Time PCR System (Life Technologies) under the following conditions: denaturation at 95° C. for 15 s, followed by annealing and extension at 60° C. for 30 s (40 cycles). For each sample, the mRNA levels of target genes were normalized against levels of GAPDH mRNA. The target/GAPDH ratios were then normalized against those in control samples using the 2-ΔΔCt method.

[2] = test system: uterine cancer cell lines; assay: Cell viability of uterine cancer cell lines; conditions: treatment for 6 days
Protocol: Cell viability was examined by measuring the cellular ATP level using the CellTiter-Glo Luminescent Cell Viability Assay (Promega). To measure cell viability after siRNA-mediated knockdown, cell lines were transfected with siRNAs (25 nM) using Lipofectamine RNAiMAX. After 48 hrs, cells were trypsinized and repeatedly transfected with siRNAs (25 nM) using Lipofectamine RNAiMAX. Cells were trypsinized after a further 48 hrs, counted, and reseeded at the specified density in 96-well plates. To measure cell viability after drug treatment, cells were trypsinized, counted, reseeded at the specified density in 96-well plates, and exposed to the indicated concentrations of drugs. Cell viability was measured using the CellTiter-Glo Luminescent Cell Viability Assay. Luminescence was measured using an Envision Multi-label plate reader (PerkinElmer).

[3] = test system: diffuse-type gastric cancer PDCs; assay: Cell viability of diffuse-type gastric cancer PDCs; conditions: treatment for 6 days
[4] = test system: GSH; assay: Detection of GSH in cells (GSH/GSSG-Glo, GSH-Glo)
[5] = test system: p53, p21; assay: Immunoblot for p53 and p21; conditions: ARID1A-WT and ARID1A-KO HCT116; 50 μM PRIMA-1, 50 μM APR-246, 10 μM Nutlin3a, 16 hrs
Protocol: The soluble fractions of whole-cell lysates were mixed with SDS sample buffer. […] The soluble fractions were mixed with SDS sample buffer. Tumor samples derived from xenografts were weighed and washed with PBS. […] The homogenized tumor samples were diluted in an additional 450 μl of NETN420 buffer, incubated for 30 min on ice, and centrifuged at 4° C. for 10 min at 15,000 rpm. The soluble fractions of whole-cell lysates were mixed with SDS sample buffer. Proteins were separated by SDS-PAGE, transferred to PVDF membranes, and immunoblotted with the indicated antibodies. β-actin was used as a loading control. Membranes were blocked overnight at 4° C. or for 1 hr at 25° C. with PVDF Blocking Reagent for Can Get Signal (TOYOBO) and then probed with Can Get Signal Solution 1 (TOYOBO) containing primary antibodies. After washing with TBS containing 0.1% Tween 20, the membranes were incubated with TBS containing 0.1% Tween 20, 1% BSA, and horseradish peroxidase-conjugated anti-mouse or anti-rabbit secondary antibodies, and visualized using Western Lightning ECL Pro (Perkin Elmer). Chemiluminescence signals were measured using LAS-3000 Imaging System (Fujifilm). Signal intensities were measured using Multi Gauge software.

COCC1(CO)C(=O)C2CCN1CC2 (stereo not drawn) [APR-246]
mRNA expression of NOXA [1]: increased | IC50 values in ARID1A-deficient versus ARID1A-proficient uterine cancer cell lines [2]: markedly lower in three ARID1A-deficient cell lines than in two ARID1A-proficient cell lines | IC50 values in ARID1A-deficient versus ARID1A-proficient PDCs [3]: markedly lower in ARID1A-deficient PDCs than in ARID1A-proficient PDCs | GSH level (GSH/GSSG) in SWI/SNF complexes-deficient cancer cells ([4]; 40 μM APR-246, 24 hrs): decreased in the GSH level | GSH levels (GSH/GSSG) in gastric cancer PDCs ([4]; 40 or 50 μM APR-246, 1.25 μM erastin, 24 hrs): markedly decreased GSH levels in ARID1A-deficient PDCs and not in ARID1A-proficient PDCs | GSH level (ratio of reduced GSH to GSSG) ([4]; ARID1A-KO HCT116 cells, but not ARID1A-WT cells, 24 hrs): dose-dependently decreased the GSH level | GSH levels in ovarian PDCs ([4]; ARID1A-deficient PDCs, 50 μM, 24 hrs): decreased the GSH levels | GSH level in cancer cell lines ([4]; ARID1A-deficient versus ARID1A-proficient ovarian and other cancer cells): decreased GSH level | expression of p53 and p21 [5]: did not markedly affect expression of p53 or p21
